Test results reported in US4734421A, “Anti-inflammatory substituted 2-benzyl-mercapto-imidazole and pyrimidine derivatives compositions and method of use therefor” (Merck & Co., Inc., priority 1986, dated 1988).

Test system: Rat Foot Edema
Assay: Rat Foot Edema Assay (CFE)
Assay type: in vivo
Conditions: Table 2a, Dosage (μg) 30
Protocol: (§1) The rat foot edema assay CFE and the topical mouse ear assay were used to evaluate the anti-inflammatory activity of the novel compounds of the present invention. These are established assay for screening non steroridal anti-inflammatory agents.
Representative compounds of formula (I) or (II) were tested according to the well-established procedures of rat foot edema assay published in 1962 by C. A. Winter, E. A. Risley and G. W. Nuss, Proc Soc Exp Biol Med. III, 544 (1962).
Results: The effect of representative compounds on Rat Foot Edema

| SMILES | Edema (% inhibition) [%] |
| --- | --- |
| COc1ccc(O)c(CSc2nccn2C)c1 [drawing 10] | 74 |
| COc1ccc(O)c(CSc2nc(C)cn2C)c1 | 77 |
| COc1ccc(O)c(CSc2ncc(C)n2C)c1 [drawing 11] | 54 |
| COc1ccc(O)c(CSc2nc(C)c[nH]2)c1 | 74 |
| COc1ccc(O)c(CSc2nc3ccccc3[nH]2)c1 [drawing 14] | 21 |
| COc1ccc(O)c(CSc2ncccn2)c1 [drawing 15] | 3 |

Same assay, conditions: Table 2b, Dosage (mpk) 30

| SMILES | % Inhibition [%] |
| --- | --- |
| Cc1cnc(SCc2cc3c(cc2O)CCCO3)n1C | 42 |

Test system: Mouse Ear Edema
Assay: Topical Mouse Ear Assay (Mouse Ear Edema)
Assay type: in vivo
Conditions: Table 1, Dosage 300 μg, irritant (PMA or AA) not given
Protocol: as §1
The right ears of mice (5 mice per group) were treated topically with either 5μ PMA ([…]) or 1000μ AA alone or with the test compound in 25μ of vehicle. The vehicle was water/pyridine/acetone (1:2:97). A control group of mice received the vehicle only. The mice were allowed food and water ad libitum during the treatment period; 2 hours for AA and 4 hours for PMA. The mice were sacrificed by cervical dislocation and a 6 mm diameter disc of tissue punched from both the treated and untreated ears. The tissue biopsies were immediately weighed and the weight increase of the treated ear relative to the weight of the untreated ear determined.
Results: The effect of representative compounds on Mouse Ear Edema

| SMILES | Edema (% inhibition) [%] |
| --- | --- |
| COc1ccc(O)c(CSc2nc3ccccc3[nH]2)c1 [drawing 7] | 76 |
| COc1ccc(O)c(CSc2ncccn2)c1 [drawing 8] | 32 |
| COc1ccc(O)c(CSc2nccn2C)c1 [drawing 5] | 45 |
| COc1ccc(O)c(CSc2ncc(C)n2C)c1 [drawing 6] | 65 |
